In patent US20120157471A1, “BENZIMIDAZOLE DERIVATIVES” (PFIZER INC., priority 2009, published 2012):

Legend:
Gli-Luc/MEF cells (Smo) = assay: Gli-Luc/MEF assay (Shh-stimulated luciferase reporter under the Gli response element); format: cell-based, mouse; conditions: Mus musculus, MEF, 48 h
Procedure, shortened: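 IC50 derived from luminescence (Bright-Glo) after 48 h at 37° C, 5% CO2, with compound at […] (3-fold dilutions) added together with mouse Shh at 2 μg/mL final. Cells: MEFs from Gli-Luc transgenic mice.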

[1] = target: T1, human Smo (amino acids 181-787) (Homo sapiens, UniProt Q99835); assay: Smo radioligand competition binding assay (displacement of 3H-PF-03451358 from HEK293 membranes); conditions: for inhibition at 0.05 µM: 0.05 μM test compound, displacement of 3H-PF-03451358, read-out: SMO % inh. @ 0.05 μM; for IC50: radioligand competition binding
T1 construct: expressed in transfected cells; membrane preparation
Procedure, shortened: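 Displacement of 3 nM tritiated PF-03451358 measured by filtration and scintillation counting after 2 h at room temperature, using 40 μg/well HEK293 membranes bearing cell-surface Smo 181-787, pH 7.5 buffer. Specific binding defined against 30 μM unlabelled ligand; IC50 via variable-slope sigmoidal fit.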

T1 sequence (Q99835 181-787): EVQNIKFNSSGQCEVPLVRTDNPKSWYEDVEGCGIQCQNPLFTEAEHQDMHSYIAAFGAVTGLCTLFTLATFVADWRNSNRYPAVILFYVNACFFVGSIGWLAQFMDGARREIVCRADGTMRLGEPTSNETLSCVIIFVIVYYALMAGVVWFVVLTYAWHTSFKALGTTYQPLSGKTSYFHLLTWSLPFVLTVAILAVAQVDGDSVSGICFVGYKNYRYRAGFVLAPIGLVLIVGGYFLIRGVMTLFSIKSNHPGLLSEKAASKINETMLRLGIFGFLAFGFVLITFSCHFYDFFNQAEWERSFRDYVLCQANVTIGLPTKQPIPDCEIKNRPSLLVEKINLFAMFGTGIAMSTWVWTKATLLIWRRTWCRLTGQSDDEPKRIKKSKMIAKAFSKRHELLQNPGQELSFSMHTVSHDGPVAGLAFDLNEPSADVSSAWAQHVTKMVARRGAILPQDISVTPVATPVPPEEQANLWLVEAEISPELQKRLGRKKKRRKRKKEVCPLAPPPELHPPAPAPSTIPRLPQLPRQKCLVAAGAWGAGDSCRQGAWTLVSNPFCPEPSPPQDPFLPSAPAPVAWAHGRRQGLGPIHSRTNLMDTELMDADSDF

Row | SMILES | IC50 (Gli-Luc/MEF cells (Smo)) [nM] | inhibition at 0.05 µM [1] [%] | IC50 [1] [nM]
1 | Cn1c(-c2cc(N3CCC(O)(CN4CCCC4=O)CC3)ncc2Cl)nc2ccccc21 [Example A-118, 1-({1-[5-chloro-4-(1-methyl-1H-benzimidazol-2-yl)pyridin-2-yl]-4-hydroxypiperidin-4-yl}methyl)pyrrolidin-2-one] | 110 | 65 | –
2 | Cn1c(-c2cc(N3CCN(S(=O)(=O)CC(C)(C)O)CC3)ncc2F)nc2ccccc21 [Example D-16, 1-({4-[5-fluoro-4-(1-methyl-1H-benzimidazol-2-yl)pyridin-2-yl]piperazin-1-yl}sulfonyl)-2-methylpropan-2-ol] | 3 | 94 | 9
3 | Cn1c(-c2cc(N3CC[C@@H](O)C3)ncc2Cl)nc2ccccc21 [Example A-26, (3R)-1-[5-chloro-4-(1-methyl-1H-benzimidazol-2-yl)pyridin-2-yl]pyrrolidin-3-ol] | 49 | 64 | 166
4 | Cc1cnc(N2CCC(NS(C)(=O)=O)CC2)cc1-c1nc2ccccc2n1C [Example E-1, N-{1-[5-methyl-4-(1-methyl-1H-benzimidazol-2-yl)pyridin-2-yl]piperidin-4-yl}methanesulfonamide] | 19.8 | 98 | 19
5 | Cn1c(-c2nc(N3CCC(S(C)(=O)=O)CC3)ncc2Cl)nc2ccccc21 [Example C-14, 2-{5-chloro-2-[4-(methylsulfonyl)piperidin-1-yl]pyrimidin-4-yl}-1-methyl-1H-benzimidazole] | 37 | 90 | 43
6 | Cn1c(-c2cc(N3CC(NS(C)(=O)=O)C3)ncc2Cl)nc2ccccc21 [Example A-41, N-{1-[5-chloro-4-(1-methyl-1H-benzimidazol-2-yl)pyridin-2-yl]azetidin-3-yl}methanesulfonamide] | 4 | 98 | 7
7 | CN(C1CCN(c2cc(-c3nc4ccccc4n3C)c(F)cn2)CC1)S(C)(=O)=O [Example D-10, N-{1-[5-fluoro-4-(1-methyl-1H-benzimidazol-2-yl)pyridin-2-yl]piperidin-4-yl}-N-methylmethanesulfonamlde] | 4 | 102 | 7
8 | CC(=O)NCC1CCN(c2cc(-c3nc4ccccc4n3C)c(Cl)cn2)CC1 [Example A-87, N-({1-[5-chloro-4-(1-methyl-1H-benzimidazol-2-yl)pyridin-2-yl]piperidin-4-yl}methyl)acetamide] | 9 | 89 | 58
9 | Cn1c(-c2cc(N3CCc4[nH]ncc4C3)ncc2Cl)nc2ccccc21 [Example A-173, 5-[5-chloro-4-(1-methyl-1H-benzimidazol-2-yl)pyridin-2-yl]-4,5,6,7-tetrahydro-1H-pyrazolo[4,3-c]pyridine] | 24 | 83 | 108
10 | Cn1c(-c2cc(N3CC[C@H](O)C3)ncc2Cl)nc2ccccc21 [Example A-28, (3S)-1-[5-chloro-4-(1-methyl-1H-benzimidazol-2-yl)pyridin-2-yl]pyrrolidin-3-ol] | 52 | 82 | 79
11 | Cn1c(-c2ccnc(N3CCNCC3)c2)nc2ccccc21 [Example A-31] | 128 | 54 | 645
12 | Cn1c(-c2cc(N3CCC(O)(c4ccncn4)C3)ncc2Cl)nc2ccccc21 (stereo not shown) [Example A-122, 1-[5-chloro-4-(1-methyl-1H-benzimidazol-2-yl)pyridin-2-yl]-3-pyrimidin-4-ylpyrrolidin-3-ol] | 38 | 59 | –
13 | Cn1c(-c2cc(N3CCn4c(CCCO)nnc4C3)ncc2Cl)nc2ccccc21 [Example A-106, 3-{7-[5-chloro-4-(1-methyl-1H-benzimidazol-2-yl)pyridin-2-yl]-5,6,7,8-tetrahydro[1,2,4]triazolo[4,3-a]pyrazin-3-yl}propan-1-ol] | 116 | 78 | 217
